1 molecule from article PMC4389443 (Respiratory Research, 2015) can be followed below.

Each structure is given as a SMILES string. Read-outs that look alike come from different tables or passages of the source.

The nature of this series: Pharmacokinetics in BALB/c mice. The series is classed as in vivo. The settings on record: mouse; for Cmax: read-out: Apparent concentration at curve maximum Cmax. The protocol: Studies were performed by ICP Firefly, Pharmalegacy and Sundia with local ethics approval. […] Plasma was analyzed for PXS-4728A by high-performance liquid chromatography-mass spectrometry/mass spectrometry. Basic pharmacokinetic parameters were estimated using PK Solutions software (Summit Research Services).

As to `CC(C)(C)NC(=O)c1ccc(OC/C(=C/F)CN)cc1` [PXS-4728A], under “BALB/c, plasma, oral, 10 mg.kg^−1, mouse, oral 10 mg.kg^−1 / i.v. 5 mg.kg^−1”, the bioavailability was > 90%. Besides, the Cmax runs as follows: (BALB/c, plasma, intravenous 5 mg.kg^−1) 1600 ng/mL; (BALB/c, plasma, oral 10 mg.kg^−1) 1380 ng/mL. The half-life (BALB/c, plasma, intravenous 5 mg.kg^−1, read-out: Apparent half-life, t1/2 (converted)) was 36 min. The clearance (BALB/c, plasma, intravenous 5 mg.kg^−1, read-out: Clearance CL) came out at 80 mL/min/kg. Also, the Tmax (BALB/c, plasma, oral 10 mg.kg^−1, read-out: Time of maximal concentration Tmax) was found to be 15 min. Further, the “Clearance CL” value (oral 10 mg.kg^−1) turned out to be 98 mL·kg/min. For the same molecule, the “Bioavailability (%)” value (oral 10 mg.kg^−1 / i.v. 5 mg.kg^−1) is recorded as 92%.
